Legend:
[1] = target: T1, plasma kallikrein (Homo sapiens, UniProt P03952); assay: Neat human plasma assay, FXIIa contact pathway-activated, PFR-AMC substrate; format: biochemical; settings: citrated human plasma 78% final, 10 nM human FXIIa, 100 μM PFR-AMC; read-out: Human Plasma Assay: IC90
T1 construct: from tissue
Outline: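 Citrated human plasma (78% final) with compound, contact-activated by 10 nM human FXIIa in pKal buffer pH 7.5, with 100 μM PFR-AMC. Fluorescence (360/480 nm) followed 5 min at room temperature; rates versus concentration fitted by 4-parameter equation for IC50/IC90.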

[2] = target: human activated kallikrein enzyme (Homo sapiens, UniProt P03952); assay: Plasma kallikrein inhibition, fluorogenic PFR-AMC substrate, 500 pM activated kallikrein format; format: biochemical; settings: 500 pM activated kallikrein, 300 uM PFR-AMC, 30 min preincubation, 10 min reaction; read-out: Primary Dose Response Assay: Average EC50
Outline: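 Enzyme at 500 pM preincubated 30 min RT with inhibitors in 20 mM Tris pH 7.5, 1 mM EDTA, 150 mM NaCl, 0.1% PEG-400, 0.1% Triton X-100. Reaction started with 300 uM PFR-AMC, run 10 min RT; fluorescence read at 460 nm emission, 380 nm excitation. EC50 reported in ranges.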

T1 sequence (P03952 391-638 limits assumed): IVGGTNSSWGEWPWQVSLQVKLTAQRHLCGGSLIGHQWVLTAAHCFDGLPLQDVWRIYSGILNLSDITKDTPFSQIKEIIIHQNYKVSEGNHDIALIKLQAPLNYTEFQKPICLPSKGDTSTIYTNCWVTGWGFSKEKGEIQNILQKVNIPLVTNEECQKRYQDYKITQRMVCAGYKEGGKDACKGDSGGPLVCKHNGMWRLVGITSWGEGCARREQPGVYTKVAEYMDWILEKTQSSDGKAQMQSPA
T1 sequence (P03952 20-390 partner limits assumed): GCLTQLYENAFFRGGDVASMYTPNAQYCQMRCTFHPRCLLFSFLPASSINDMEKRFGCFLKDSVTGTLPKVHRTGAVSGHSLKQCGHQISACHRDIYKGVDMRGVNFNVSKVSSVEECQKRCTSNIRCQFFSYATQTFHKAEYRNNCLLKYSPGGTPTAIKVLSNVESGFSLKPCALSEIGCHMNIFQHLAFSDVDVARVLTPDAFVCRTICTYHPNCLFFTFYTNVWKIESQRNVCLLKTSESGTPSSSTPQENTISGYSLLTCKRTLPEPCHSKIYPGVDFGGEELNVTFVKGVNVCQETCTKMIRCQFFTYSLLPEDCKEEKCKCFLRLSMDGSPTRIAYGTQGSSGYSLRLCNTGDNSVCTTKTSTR
Sequence of human activated kallikrein enzyme (P03952 391-638 limits assumed): as the sequence (P03952 391-638 limits assumed) above
Sequence of human activated kallikrein enzyme (P03952 20-390 partner limits assumed): as the sequence (P03952 20-390 partner limits assumed) above

Structure (SMILES)	IC90 [1] [µM]	EC50 [2] [µM]
COCc1nc(NC(=O)[C@H]2C[C@@H]2c2nccc(C)n2)cc(OCc2cn3cc(C4CC4)cc(N4CC(=O)N(C)C4=O)c3n2)n1 [Example 551, (1S,2S)-N-(6-((6-cyclopropyl-8-(3-methyl-2,4-dioxoimidazolidin-1-yl)imidazo[1,2-a]pyridin-2-yl)methoxy)-2-(methoxymethyl)pyrimidin-4-yl)-2-(4-methylpyrimidin-2-yl)cyclopropane-1-carboxamide]	0.4 to 1.5	< 0.001
Cc1cccc([C@H]2C[C@@H]2C(=O)Nc2cc(NCc3cn4cc(C5CC5)cc(N5CC(=O)N(C)C5=O)c4n3)ncn2)n1 (racemic) [Example 500, rac-(1S*,2S*)-N-(6-(((6-cyclopropyl-8-(3-methyl-2,4-dioxoimidazolidin-1-yl)imidazo[1,2-a]pyridin-2-yl)methyl)amino)pyrimidin-4-yl)-2-(6-methylpyridin-2-yl)cyclopropane-1-carboxamide]	0.4 to 1.5	< 0.001
Cc1ccnc([C@H]2C[C@@H]2C(=O)Nc2ncc(F)c(NCc3cn4cc(C5CC5)cc(N5CC(=O)N(CCOCc6ccccc6)C5=O)c4n3)n2)n1 (racemic) [Example 515, rac-(1S*,2S*)-N-(4-(((8-(3-(2-(benzyloxy)ethyl)-2,4-dioxoimidazolidin-1-yl)-6-cyclopropylimidazo[1,2-a]pyridin-2-yl)methyl)amino)-5-fluoropyrimidin-2-yl)-2-(4-methylpyrimidin-2-yl)cyclopropane-1-carboxamide]	0.4 to 1.5	< 0.001
Cc1ccnc([C@H]2C[C@@H]2C(=O)Nc2cc(Cc3cn4cc(C5CC5)cc(N5CC(=O)N(C)C5=O)c4n3)ncn2)n1 (racemic) [Example 620, rac-(1S*,2S*)—N-(6-((6-cyclopropyl-8-(3-methyl-2,4-dioxoimidazolidin-1-yl)imidazo[1,2-a]pyridin-2-yl)methyl)pyrimidin-4-yl)-2-(4-methylpyrimidin-2-yl)cyclopropane-1-carboxamide]	0.4 to 1.5	0.001 to 0.01
Cc1ccnc([C@H]2C[C@@H]2C(=O)Nc2cc(NCc3cn4cc(C5CC5)cc(N5CCCC5=O)c4n3)ncn2)n1 (racemic) [Example 389, rac-(1S*,2S*)-N-(6-(((6-cyclopropyl-8-(2-oxopyrrolidin-1-yl)imidazo[1,2-a]pyridin-2-yl)methyl)amino)pyrimidin-4-yl)-2-(4-methylpyrimidin-2-yl)cyclopropane-1-carboxamide]	0.4 to 1.5	< 0.001
CC[C@@H](Nc1cc(NC(=O)[C@H]2C[C@@H]2c2nccc(C)n2)nc(C)n1)c1cn2cc(C3CC3)cc(N3CC(=O)N(C)C3=O)c2n1 [Example 358, (1S,2S)-N-(6-(((R)-1-(6-cyclopropyl-8-(3-methyl-2,4-dioxoimidazolidin-1-yl)imidazo[1,2-a]pyridin-2-yl)propyl)amino)-2-methylpyrimidin-4-yl)-2-(4-methylpyrimidin-2-yl)cyclopropane-1-carboxamide]	0.4 to 1.5	< 0.001
O=C(Nc1cc(NCc2cn3cc(C4CC4)ccc3n2)nc(=O)[nH]1)[C@H]1C[C@@H]1c1cccc(Cl)c1 [Example 296, (1S,2S)-2-(3-chlorophenyl)-N-(6-(((6-cyclopropylimidazo[1,2-a]pyridin-2-yl)methyl)amino)-2-oxo-2,3-dihydropyrimidin-4-yl)cyclopropane-1-carboxamide]	1.5 to 10	< 0.001
CN1CCN(c2cc(C3CC3)cn3cc(CNc4ccnc(NC(=O)[C@H]5C[C@@H]5c5cccc(Cl)c5)c4)nc23)CC1=O [Example 130, (1S,2S)-2-(3-chlorophenyl)-N-(4-(((6-cyclopropyl-8-(4-methyl-3-oxopiperazin-1-yl)imidazo[1,2-a]pyridin-2-yl)methyl)amino)pyridin-2-yl)cyclopropane-1-carboxamide]	0.4 to 1.5	< 0.001
Cc1ccnc([C@H]2C[C@@H]2C(=O)Nc2cc(N(C)Cc3cn4cc(C5CC5)cc(N5CC(=O)N(CC(C)(C)O)C5=O)c4n3)ncn2)n1 [Example 368, (1S,2S)-N-(6-(((6-cyclopropyl-8-(3-(2-hydroxy-2-methylpropyl)-2,4-dioxoimidazolidin-1-yl)imidazo[1,2-a]pyridin-2-yl)methyl)(methyl)amino)pyrimidin-4-yl)-2-(4-methylpyrimidin-2-yl)cyclopropane-1-carboxamide]	< 0.4	< 0.001
Cc1nccc([C@H]2C[C@@H]2C(=O)Nc2cc(NCc3cn4cc(C5CC5)cc(N5CC(=O)N(C)C5=O)c4n3)ncn2)n1 (racemic) [Example 499, rac-(1S*,2S*)-N-(6-(((6-cyclopropyl-8-(3-methyl-2,4-dioxoimidazolidin-1-yl)imidazo[1,2-a]pyridin-2-yl)methyl)amino)pyrimidin-4-yl)-2-(2-methylpyrimidin-4-yl)cyclopropane-1-carboxamide]	0.4 to 1.5	0.001 to 0.01
Cc1nc([C@H]2C[C@@H]2C(=O)Nc2cc(NCc3cn4cc(C5CC5)cc(N5CC(=O)N(C)C5=O)c4n3)ncn2)ncc1F (racemic) [Example 489, rac-(1S*,2S*)—N-(6-(((6-cyclopropyl-8-(3-methyl-2,4-dioxoimidazolidin-1-yl)imidazo[1,2-a]pyridin-2-yl)methyl)amino)pyrimidin-4-yl)-2-(5-fluoro-4-methylpyrimidin-2-yl)cyclopropane-1-carboxamide]	0.4 to 1.5	< 0.001

The next lines start with the values.

IC90 [1] [µM]	EC50 [2] [µM]	Structure (SMILES)
0.4 to 1.5	0.001 to 0.01	CN1CCN(c2cc(C3CC3)cn3cc(CNc4cc(NC(=O)[C@H]5C[C@@H]5c5cccc(Cl)c5)ncn4)nc23)CC1CO (stereo partly drawn) [Example I-7, (1S,2S)-2-(3-chlorophenyl)-N-(6-(((6-cyclopropyl-8-(3-(hydroxymethyl)-4-methylpiperazin-1-yl)imidazo[1,2-a]pyridin-2-yl)methyl)amino)pyrimidin-4-yl)cyclopropane-1-carboxamide]
< 0.4	< 0.001	COc1cnc(NC(=O)[C@H]2C[C@@H]2c2nccc(C)n2)nc1NCc1cn2cc(C3CC3)cc(N3CC(=O)N(C)C3=O)c2n1 (racemic) [Example I-244, rac-(1S*,2S*)-N-(4-(((6-cyclopropyl-8-(3-methyl-2,4-dioxoimidazolidin-1-yl)imidazo[1,2-a]pyridin-2-yl)methyl)amino)-5-methoxypyrimidin-2-yl)-2-(4-methylpyrimidin-2-yl)cyclopropane-1-carboxamide]
> 48	0.001 to 0.01	Nc1ccc(Cl)cc1[C@H]1C[C@@H]1C(=O)Nc1cc(NCc2cn3cc(C4CC4)ccc3n2)ccn1 (racemic) [Example I-222, rac-(1S*,2S*)-2-(2-amino-5-chlorophenyl)-N-(4-(((6-cyclopropylimidazo[1,2-a]pyridin-2-yl)methyl)amino)pyridin-2-yl)cyclopropane-1-carboxamide]
0.4 to 1.5	< 0.001	CN1C(=O)CN(c2cc(C3CC3)cn3cc(CNc4ccnc(NC(=O)[C@H]5C[C@@H]5c5cccc(Cl)c5)c4)nc23)C1=O [Example I-209, (1S,2S)-2-(3-chlorophenyl)-N-(4-(((6-cyclopropyl-8-(3-methyl-2,4-dioxoimidazolidin-1-yl)imidazo[1,2-a]pyridin-2-yl)methyl)amino)pyridin-2-yl)cyclopropane-1-carboxamide]
